Results reported in patent US20110172097A1, “Imidazole and Triazole Compounds, Their Use and Agents Containing The Same” (BASF SE, priority 2008, published 2011).

Key:
[1] = test system: Pyricularia oryzae; type: cell-based; conditions: day 7, 405 nm, active compound-free control = 100%
[2] = test system: Phakopsora pachyrhizi; assay: Example G1 - Curative activity against soybean rust caused by Phakopsora pachyrhizi (greenhouse); type: in vivo, Phakopsora pachyrhizi on soybean seedlings; conditions: 300 ppm, curative spray 24 h after inoculation, assessed after 14 days, untreated plants 90% infected
[3] = test system: Septoria tritici; assay: CG1 - Protective activity against Septoria leaf spot of wheat caused by Septoria tritici (greenhouse); type: in vivo, Septoria tritici on wheat seedlings; conditions: protective spray 24 h before inoculation, assessed after 21 days, % infection of total leaf area, untreated control 90
Protocol: Subsequently, it was made up to 100 ml with water. This stock solution was diluted with the described solvent/emulsifier/water mixture to the active compound concentration indicated below. Alternatively, the active compounds were used as a commercially available ready-to-use solution and diluted with water to the active compound concentration indicated. CG1 Protective Activity Against Septoria Leaf Spot of Wheat Caused by Septoria tritici Leaves of potted wheat seedlings were sprayed to run off point with an aqueous suspension having the active compound concentration stated below. 24 hours after the spray coating had dried on, they were inoculated with an aqueous spore suspension of Septoria tritici. The test plants were then placed in a greenhouse at temperatures between 18 and 22° C. and a relative atmospheric humidity close to 100% for 4 days and then at temperatures between 18 and 22° C. and an atmospheric humidity of about 70%. After 21 days, the extent of the development of the disease was determined visually in % infection of the total leaf area.

Compound | Growth (%) at 31 ppm CM1 [1] | Infection (%) at 600 ppm CG1 [3] | further results
CC(C)(CCCC(C(O)C(C)(C)C)n1cncn1)c1ccccc1 (centres unmarked) [I.A1a, 2,2,8-trimethyl-8-phenyl-4-[1,2,4]triazol-1-ylnonan-3-ol] | 26% |  | 
CC(C)(CCCC(C(O)C(C)(C)C)n1cncn1)c1ccccc1 (centres unmarked) [I.A1b, 2,2,8-trimethyl-8-phenyl-4-[1,2,4]triazol-1-ylnonan-3-ol] |  |  | extent of the rust fungus development on the leaves in % infection [2]: 0%
CC(C)(C)C(O)C(CCCCc1ccc(F)cc1)n1cncn1 (centres unmarked) [I.A5a, 8-(4-fluorophenyl)-2,2-dimethyl-4-[1,2,4]triazol-1-yloctan-3-ol] |  | 10% | 
CC(C)(C)C(O)C(CCCCc1ccc(Cl)cc1)n1cncn1 (centres unmarked) [reference compound] |  | 40% | 
CC(C)(C)C(O)C(CCCCc1ccccc1)n1cncn1 (centres unmarked) [reference compound] | 61% |  | 
